Experimental data: US20100035822A1, “PROLINE-RICH PEPTIDES, PHARMACEUTICAL COMPOSITION, USE OF ONE OR MORE PEPTIDES AND METHOD OF TREATMENT” (priority 2006, published 2010)

Key:
C6 cells from rat glioma = test: NO production in C6 glia cells; type: cell-based
Procedure: All reagents for cellular biology experiments were purchased from Invitrogen. C6 cells from rat glioma were cultured in DMEM, supplemented with 10% fetal bovine serum, streptomycin sulphate (100 μg/ml), and penicillin G (100 U/ml). Cultures were kept at 37° C. in 5% CO2 atmosphere. 24 hours before peptides were added, cells were transferred to a 24 well plate (1.5×10^5 cells/ml/well), containing DMEM medium lacking serum. Peptides were added to the cultures to a final concentration of 1 μM, and incubated for 24 hours at 37° C. in 5% CO2 atmosphere. The medium was collected and stored at −80° C.
NO concentration was determined in 1 ml of culture medium, which was incubated with N-ethylmaleimide at a final concentration of 10 mM, for 24 hours. The supernatant of a centrifugation at 1.000 rpm was injected in the NOA equipment (Nitric Oxide Analyser-Sievers) for NO quantification.

normotensive Wistar rats = type: in vivo, rat; settings: 10 μmoles/Kg of body weight i.v.; 6 hours
Procedure: In vivo studies on the effect of peptides of the present invention were performed on adult male spontaneously hypertensive rats, and normotensive Wistar rats (Rattus novergicus) weighing 250 to 350 g. Animals had free access to chow (Nuvilab) and water, and were submitted to a light-dark cycle of 12 hours each. Procedures involving animals and their care were conducted according to Giles [Giles A. R. Guidelines for the use of animals in biomedical research. Thromb. Haemost. 58: 1078-1084, 1987].
Before drug administration, cardiovascular parameters of the rats were monitored for 40 minutes. Intravenous (I.V.) injection of Ang I (100 ng) was performed in bolus in a total volume of 0.1 mL. 60 minutes after the start of register, 71 nmoles/Kg body weight of peptides SEQ ID NO 8 or SEQ ID NO 4, or captopril were administered I.V. in a total volume of 0.5 mL of 0.9% NaCl solution. […] Arterial blood pressure and heart frequency were continuously monitored for 360 minutes.
Adult male Wistar normotensive rats, weighing between 250 and 350 g, were used in the experimental evaluation of the hypotensive effect of SEQ ID NO 8, as described in Example 12. An i.v. dose of 10 μmoles/Kg of body weight of peptide SEQ ID NO 8 was injected, and arterial blood pressure was monitored for 6 hours (results not shown).

[1] = test system: total kidney protein extract; test: NO production in total kidney protein extract; type: biochemical, mouse; settings: kidney homogenate of mice; 0.01 to 50 μmol, preferentially 0.5 to 2 μmol peptide
Procedure: The release of NO was evaluated by means of nitrate and nitrit accumulation in total kidney protein extract of male Swiss mice weighing 30-35 g, as described by Wu and Yen (Wu C C and Yen M H. Higher level of plasma nitric oxide in spontaneously hypertensive rats. Am. J. Hypertension 12: 476-482, 1999). Animals were subjected to perfusion with 0.9% saline solution containing heparin (1:1000). Kidneys were collected and homogenized in cold 50 mM Tris-HCl, 0.1 mM EDTA, 0.1 mM EGTA, 12 mM β-mercaptoethanol, and 1 mM phenylmethylsulphonyl fluoride, pH 7.4 buffer in a homogenizer (Polytron PT MR 3000, Kinematic AG, Littau). Homogenates were incubated with 10 nM, 1 μM, or 10 μM peptide SEQ ID NO 8 in a final volume of 500 μl for 1 hour. Trichloracetic acid (1%) was added at 4° C., and after 20 minutes the mixture was centrifuged at 13.000 g for 7 min at 4° C. A saturated solution of vanadium chloride (VCl3) in 1 M HCl at 90° C. was added to the supernatant, and the concentration of NO was determined by gas chemiluminescence by means of the reaction of NO with ozone in a NO analyzer (NOA^TM280; Sievers Inc.). The concentration of nitrate was determined using a standard curve of NaNO3 and the Bag software 2.2 (Sievers Instruments Inc.).

SK-N-AS cells = test: NO (nitrite) production in SK-N-AS neuroblastoma cells; type: cell-based, human; settings: 24 hours incubation
Procedure: Human neurobalsotma cells (SK-N-AS, ATCC no. CRL-2137) were kept in DMEM, supplemented with 10% FBS (fetal bovine serum) and 1% non-essential amino acids, at 5% CO2 atmosphere, at 37° C., and 95% relative humidity. Cells were treated with trypsin, and replicated when an adequate cell concentration had been reached. The medium was exchanged after 12 hours, and later, every third day.
The method of Feelisch et al. (Feelisch et al., Concomitant S-, N-, and heme-nitros(yl)ation in biological tissues and fluids: implications for the fate of NO in vivo. FASEB J 16: 1775-1785, 2000) was employed to analyze NO production in the endothelial and neuronal cells described above.
Cells were grown in Petri dishes to 80% confluence. Peptide SEQ ID NO 8 was added in the concentration range of 0-8 μM to HUVEC cells, and 0-100 μM to SK-N-AS cells, and incubation continued for 24 hours. Subsequently, 1 ml of medium was retrieved (extracellular medium), and replaced by 1 ml 10 mM N-ethylmaleimide. Cells were washed in PBS, and lyzed in RIPA buffer (50 mM Tris pH 7.5, 150 mM NaCl, 1% Nonidet p-40 (NP-40) and 0.5% Na-desoxycholate, 0.1% SDS, 1 mM DTPA, and 10 mM N-ethylmaleimide). Lysats were collected and incubated on ice for 20 minutes and centrifuged. Supernatants were kept at −80° C. […] The concentration of nitrite, derived from NO, was measured in the extracellular and the intracellular media.

## <ENWPHPQIPP [SEQ ID NO 8]
C6 cells from rat glioma
  rank of efficiency in activating nitrite production: the most efficient
Normotensive Wistar rats
  hypotensive effect in normotensive rats: no significant hypotensive effect
[1]
  increase of nitrite production (generated from NO): 5 fold
SK-N-AS cells
  increase of NO generation: approximately 100%
